Consider six compounds from patent publication US20250195513A1, “DEGRADATION OF IRAK4 BY CONJUGATION OF IRAK4 INHIBITORS WITH E3 LIGASE LIGAND AND METHODS OF USE” (BeiGene, Ltd., priority 2022, published 2025).

Structures are written as SMILES. Like-named read-outs stand apart in the source and are kept apart here.

This assay deals with T1, IRAK4 (Homo sapiens, UniProt Q9NWZ3).
T1 construct: endogenous in cells; host or cells: Karpas299
T1 sequence (Q9NWZ3 1-460): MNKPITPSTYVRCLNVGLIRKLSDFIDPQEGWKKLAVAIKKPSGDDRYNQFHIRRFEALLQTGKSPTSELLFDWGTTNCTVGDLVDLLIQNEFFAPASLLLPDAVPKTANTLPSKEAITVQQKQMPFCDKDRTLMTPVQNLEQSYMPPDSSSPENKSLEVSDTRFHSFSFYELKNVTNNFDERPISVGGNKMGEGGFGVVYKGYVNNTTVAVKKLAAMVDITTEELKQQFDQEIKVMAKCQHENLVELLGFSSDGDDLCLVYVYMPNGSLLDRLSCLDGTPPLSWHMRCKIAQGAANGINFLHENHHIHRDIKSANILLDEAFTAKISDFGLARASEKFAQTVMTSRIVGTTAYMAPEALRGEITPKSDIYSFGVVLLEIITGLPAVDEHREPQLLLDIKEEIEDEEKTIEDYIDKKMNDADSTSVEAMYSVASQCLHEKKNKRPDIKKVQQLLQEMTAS
Briefly: IRAK4 Degradation Assay (Karpas299, HTRF/TR-FRET). It counts as cell-based. Particulars: Karpas-299 cells; for Dmax: maximum percentage of degradation. In a few lines: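 Karpas299 cells at 0.2 million per well were exposed to serially diluted compounds for 24 h or 5 h, then lysed. IRAK4 remaining in lysates was quantified by HTRF (665/620 nm) after overnight antibody incubation at room temperature. Percent degradation was fitted to a four-parameter curve to give IC50 (DC50).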
A general note: TR-FRET usually uses a lanthanide donor and a delayed reading to cut background.

The mark [1] stands for this setting: 24 h treatment, read-out: IRAK4 in Karpas-299 (24 h) Dmax (%).
Where [2] appears, read: 24 h treatment, read-out: IRAK4 in Karpas-299 (24 h) DC50.
[3] abbreviates: 5 h treatment, read-out: IRAK4 in Karpas-299 (5 h) Dmax (%).
Where [4] appears, read: 5 h treatment, read-out: IRAK4 in Karpas-299 (5 h) DC50.

Take `CC(C)(O)c1cc2nn([C@H]3CC[C@H](N4CCN(C(=O)[C@@H]5CCN(c6cc(F)c([C@H]7CCC(=O)NC7=O)c(F)c6)C5)CC4)CC3)cc2cc1NC(=O)c1ccc2c(n1)C(F)(F)CCC2` [Example 172, N-(2-((1R,4r)-4-(4-((R)-1-(4-((R)-2,6-dioxopiperidin-3-yl)-3,5-difluorophenyl)pyrrolidine-3-carbonyl)piperazin-1-yl)cyclohexyl)-6-(2-hydroxypropan-2-yl)-2H-indazol-5-yl)-8,8-difluoro-5,6,7,8-tetrahydroquinoline-2-carboxamide]: the Dmax – broadly, the greatest extent of degradation seen – under setting [1] amounted to 94%. Further, under setting [2], the DC50 (as a rule, the midpoint of the concentration-degradation curve) was 1.6 nM.
`[2H]C([2H])([2H])Oc1cc2nn([C@H]3CC[C@H](N4CCN(C(=O)[C@@H]5CCN(c6cc(F)c(N7CCC(=O)NC7=O)c(F)c6)C5)CC4)CC3)cc2cc1NC(=O)c1cccc(C(F)(F)F)n1` [Example 174, N-(2-((1R,4r)-4-(4-((R)-1-(4-(2,4-dioxotetrahydropyrimidin-1(2H)-yl)-3,5-difluorophenyl)pyrrolidine-3-carbonyl)piperazin-1-yl)cyclohexyl)-6-(methoxy-d3)-2H-indazol-5-yl)-6-(trifluoromethyl)picolinamide]: under setting [1], the Dmax worked out at 97%. Moreover, the DC50 under setting [2] is 7.7 nM.
Take `O=C1CCC(c2ccc(N3CC(C(=O)N4CCN([C@H]5CC[C@H](n6cc(NC(=O)c7coc(-c8ccnc(NCC(F)(F)F)c8)n7)c(C(F)F)n6)CC5)CC4)C3)cc2)C(=O)N1` (stereo partly shown) [Example 175, N-(3-(difluoromethyl)-1-((1r,4r)-4-(4-(1-(4-(2,6-dioxopiperidin-3-yl)phenyl)azetidine-3-carbonyl)piperazin-1-yl)cyclohexyl)-1H-pyrazol-4-yl)-2-(2-((2,2,2-trifluoroethyl)amino)pyridin-4-yl)oxazole-4-carboxamide]: the Dmax reads like this: under setting [3], 88%; under setting [1], 100%. Moreover, the DC50 under setting [4] came to 12 nM and the DC50 under setting [2] came to 1.7 nM.
On to `COc1cc2nn([C@H]3CC[C@H](N4CCN(C(=O)[C@@H]5CCN(c6cc(F)c(N7CCC(=O)NC7=O)c(F)c6)C5)CC4)CC3)cc2cc1NC(=O)c1cccc(C(F)(F)F)n1` [Example 177, N-(2-((1R,4r)-4-(4-((R)-1-(4-(2,4-dioxotetrahydropyrimidin-1(2H)-yl)-3,5-difluorophenyl)pyrrolidine-3-carbonyl)piperazin-1-yl)cyclohexyl)-6-methoxy-2H-indazol-5-yl)-6-(trifluoromethyl)picolinamide], for which the Dmax worked out at 94% under setting [3] and 97% under setting [1]. Besides, the DC50 amounted to 44 nM under setting [4] and 7.8 nM under setting [2].
Consider `CC(C)(O)c1cc2nn(C3CCN([C@H]4CCN(CC5CN(c6cc(F)c([C@H]7CCC(=O)NC7=O)c(F)c6)C5)CC4(F)F)CC3)cc2cc1NC(=O)c1ccc2cc(C#N)cnn12` [Example 197, 3-cyano-N-(2-((S)-1′-((1-(4-((R)-2,6-dioxopiperidin-3-yl)-3,5-difluorophenyl)azetidin-3-yl)methyl)-3′,3′-difluoro-[1,4′-bipiperidin]-4-yl)-6-(2-hydroxypropan-2-yl)-2H-indazol-5-yl)pyrrolo[1,2-b]pyridazine-7-carboxamide], for which, under setting [1], the Dmax was 96%. For the same compound, under setting [2], the DC50 was 4.8 nM.
As to `CC(C)(O)c1cc2nn(C3CCN([C@@H]4CCN(C(=O)C5CN(c6cc(F)c(N7CCC(=O)NC7=O)c(F)c6)C5)CC4(F)F)CC3)cc2cc1NC(=O)c1ccc2cc(C#N)cnn12` [Example 198, (R)-3-cyano-N-(2-(1′-(1-(4-(2,4-dioxotetrahydropyrimidin-1(2H)-yl)-3,5-difluorophenyl)azetidine-3-carbonyl)-3′,3′-difluoro-[1,4′-bipiperidin]-4-yl)-6-(2-hydroxypropan-2-yl)-2H-indazol-5-yl)pyrrolo[1,2-b]pyridazine-7-carboxamide], the Dmax under setting [1] turned out to be 93%. In addition, the DC50 under setting [2] is 9 nM.
